In the COVID Moonshot data (paper PMC11187573), “Identification of SARS-CoV-2 Mpro inhibitors through deep reinforcement learning for de novo drug design and computational chemistry approaches” (RSC Medicinal Chemistry, 2024):

Columns and labels:
[1] = target: SARS-CoV-2 Main Protease (SARS-CoV-2) (UniProt P0DTD1)
[2] = target: SARS-CoV-2 Main Protease (SARS-CoV-2) (UniProt P0DTD1); remark: listed apart in the source

SMILES | inhibition ([1]; 50.0 µM) [%] | relative solubility at 20 uM | relative solubility at 100 uM | inhibition ([2]; 20.0 µM) [%] | inhibition ([2]; 50.0 µM) [%] | IC50 [1] [µM] | inhibition ([1]; 20.0 µM) [%] | IC50 [2] [µM]
C/C=C/C(=O)Nc1cccc(OC2CC(=O)N2)c1 (stereo not drawn) | 0 | 1 | 1 | -3.03 | 4.68 |  |  | 
O=C(c1cc(=O)[nH]c2ccccc12)N1CCN(c2ccc(F)cc2)CC1 | 52.3 | 0.99 | 0.99 | 57 | 78.5 | 52.7 |  | 
C=CC(=O)N(C(C(=O)NC(C)(C)C)c1cccnc1)C1CC12CC(C)(C)C2 (stereo not drawn) | 3.54 | 1 | 0.99 | 13 | 15.5 |  |  | 
O=C(Nc1ccccc1)Nc1cnc2ccc([N+](=O)[O-])cc2n1 | 0.772 | 0.86 | 0.84 | -15.3 | 9.06 |  |  | 
Cc1cc(C)cc(NC(=O)Cc2cnn(C)c2C)c1 | 0 | 1 | 1.01 | -12.1 | -5.28 |  |  | 
O=C(Nc1cccc(C(=O)N2CCSCC2)c1)C(F)Cl (stereo not drawn) | 0 | 1 | 1 | -13.8 | -16.9 |  | 0 | 
CCN(Cc1cccc(-c2ccncc2)c1)C(=O)Cc1noc2ccccc12 |  | 0.98 | 0.85 | -25.4 | -15.8 |  | 0 | 
Cc1ccncc1NC(=O)Nc1cccc(C#N)c1 | 55.7 | 1 | 0.97 | 19.4 | 44.3 | 49.3 | 23.8 | 
O=C(CCl)N1CCN(Cc2cc(O)ccc2O)CC1 | 89.9 | 0.99 | 0.99 | 57.4 | 74.5 | 9.28 | 63.9 | 
COc1cccc2c1OCC(NC(=O)c1cc(=O)[nH]c3cc(F)ccc13)C2 (stereo not drawn) | 0 | 0.9 | 0.86 | -1.01 | -0.175 |  |  | 
N#Cc1cccc(CNc2ccc(O)cc2)c1 | 22.7 | 1 | 1 | 9.73 | 2.32 |  | 19.8 | 
Cc1ccncc1N(C)C(=O)[C@@H]1C[C@H]1CF (stereo in doubt) | 4.57 | 1.01 | 1.01 | -7.38 | 1.67 |  |  | 
C=CC(=O)N(c1ccc(C2(C)CC2)cc1)C(C(=O)Nc1ccc(Cl)cc1)c1cccnc1 (stereo not drawn) | -0.67 | 0.95 | 0.56 |  | -9.81 |  | 0 | 
O=C(Nc1nncn1C1CC1)[C@@H]1CCOc2ccc(Cl)cc21 (stereo in doubt) | -10.4 | 0.99 | 0.99 | -7.38 | 19.5 |  |  | 
CCOC(=O)[C@@H](CCc1ccccc1)N[C@H](C)C(=O)Nc1cccc(CN2CCCC2)c1 (stereo in doubt) | 6.6 | 0.99 | 0.97 | -3.55 | 1.33 |  |  | 
O=C(Cc1c[nH]c2ncccc12)NCc1ccc(Cl)cc1 |  | 1 | 0.95 | 2.99 | 3.45 |  | 0 | 
O=C(CCn1ccnn1)NC(CN1CCOCC1)c1ccccc1 (stereo not drawn) | 0 | 1 | 1 | 2.31 | 5.19 |  | 0 | 
CN1C(=O)/C(=N\NC(=O)c2ccc3c(c2)OCO3)c2ccccc21 | -12.8 | 0.97 | 0.75 | -16.9 | -60.6 |  |  | 
C=CC(=O)N(c1ccc(C(C)(C)C)cc1)C(C(=O)NC)c1cccnc1 (stereo not drawn) | 100 | 1.01 | 0.99 | 42.1 | 69.7 | 17 | 57.4 | 
CO[C@@H](C)C(=O)Nc1cnccc1C (stereo in doubt) | 6.67 | 1 | 1.01 | 1.23 | 0.255 |  |  | 
C=CC(=O)N(c1ccc2c(ccn2C)c1)C(C(=O)NC(C)(C)C)c1cccnc1 (stereo not drawn) |  | 1.01 | 1 | -17.6 | -18 |  | 0 | 
Cc1cccc(C)c1OCC(=O)N[C@@H](Cc1ccccc1)[C@@H](O)C[C@H](Cc1ccccc1)NC(=O)[C@H](C(C)C)N1CCCNC1=O (stereo in doubt) |  | 0.83 | 0.53 | 7.22 | 13 |  | 0 | 
CCO[C@@H]1C[C@H]1C(=O)Nc1cnccc1C (stereo in doubt) | 0 | 1 | 1 | -4.13 | -3.45 |  |  | 
C#CCN1CCN(C(=O)C=C)CC1 |  | 1.01 | 1.01 | -18.6 | -15 |  | 3.23 | 
CCC(C)CC(=O)N1CCCC(NC(=O)Cn2c(C)cc(C)nc2=O)CC1 (stereo not drawn) | -29.6 | 0.98 | 1 | -4.95 | -19.4 |  |  | 

SMILES | inhibition ([1]; 50.0 µM) [%] | relative solubility at 20 uM | relative solubility at 100 uM | inhibition ([2]; 20.0 µM) [%] | inhibition ([2]; 50.0 µM) [%] | IC50 [1] [µM] | inhibition ([1]; 20.0 µM) [%] | IC50 [2] [µM]
CC(NC(=O)c1ccccc1OCC(N)=O)c1cnn(C)c1 (stereo not drawn) | 0 | 1 | 1 | -1.52 | 2.68 |  | 0 | 
O=C(Nc1cnccc1Cl)c1cccc(Cl)c1 | 10.5 | 1 | 1 | -2.3 | 3.23 |  | 0 | 
C=CC(=O)N(c1ccc(C(C)(C)C)cc1)C(C(=O)NC1CCOCC1)c1cccnc1 (stereo not drawn) | 31.1 | 0.99 | 1 | 9.01 | 0.668 |  | 0.841 | 
Cc1nnn(NC(=O)Cc2cccc(Cl)c2)c1C | 28.7 | 1 | 1.01 | 39.6 | 70.4 | 73.4 |  | 
C=CC(=O)N(c1ccc(CC)c(I)c1)C(C(=O)NC(C)(C)C)c1cccnc1 (stereo not drawn) | 9.38 | 0.95 | 0.93 | 15.2 | 20.7 |  |  | 
O=C(C(F)Cl)N1CCCC(c2nc3ccccc3s2)C1 (stereo not drawn) | 0 | 0.99 | 0.99 | 7.1 | 16.2 |  | 0 | 
O=C(O)[C@@H](Cc1nc(=O)cc[nH]1)NCc1ccc(Cl)s1 (stereo in doubt) | 2.07 | 1.01 | 1 | 6.7 | 4.85 |  |  | 
CCc1ccccc1Nc1nc(N)nc(CSc2nnc3ccccn23)n1 | 3.37 | 0.99 | 0.95 | 20.9 | 46.6 |  | -0.805 | 
Cn1cncc1CNC(=O)Nc1cccc(OCC(F)F)n1 | 28.4 | 1 | 1 |  | 36.2 |  | 0 | 
CS(=O)(=O)NCCCN1CCCc2ccc(S(N)(=O)=O)cc21 | 0 | 1 | 1 |  | -23.8 |  | 0 | 
C=CC(=O)N(c1ccc2ncsc2c1)C(C(=O)Nc1ccc(Br)cc1)c1cccnc1 (stereo not drawn) |  | 0.75 | 0.64 | 17.4 | 34.9 |  | 3.05 | 
Cc1noc(C)c1COc1ccccc1C(=O)NC(C)c1nnc2ncccn12 (stereo not drawn) | 18.5 | 0.99 | 0.94 | 2.22 | 8.28 |  | 0 | 
O=C(c1cc(=O)[nH]c2ccc(F)cc12)N1CCN(S(=O)(=O)c2ccccc2Cl)CC1 | 39.8 | 0.98 | 0.93 | 19.5 | 35.1 |  |  | 
O=C(CCl)Nc1cccc(N2CCCC2=O)c1 |  | 1 | 1 | 27.1 | 51.4 |  |  | 
Cc1ccncc1NC(=O)Cc1cc(Cl)cc(OC2CC(=O)N2)c1 (stereo not drawn) |  | 0.99 | 1 |  |  |  |  | 
O=C(/C=C/C=C/c1ccc2c(c1)OCO2)N1CCCCC1 |  | 1 | 0.97 |  |  |  | 0 | 
CCn1c(CSc2nc(C)c(C)n2CC2CCCO2)nc2cc(S(=O)(=O)N(C)C)ccc21 (stereo not drawn) |  | 0.85 | 0.84 | -23.6 | -3.59 |  |  | 
COc1cc(Cl)cc(OC(=O)Nc2cccnc2)c1 |  | 1 | 1 |  |  |  |  | 
Cc1ccncc1NC(=O)Cc1cccc(Cl)c1 |  | 1 | 1 |  |  |  |  | 
N#Cc1cccc(C2CN(C(=O)CCl)Cc3ccccc32)c1 (stereo not drawn) |  | 1 | 0.99 | 98.8 | 95.3 |  |  | 
O=C(CCl)N1CCN(Cc2cccs2)CC1 |  | 1 | 1 | 94.5 | 99 |  |  | 
Cc1nnc(NC(=O)[C@@H]2COc3ccc(Cl)cc32)n1C1CC1 (stereo in doubt) |  | 1 | 1 |  |  |  |  | 
O=C(Nc1cnccc1CO)C1CCOc2ccc(Cl)cc21 (stereo not drawn) |  | 0.94 | 0.93 |  |  |  |  | 
C=CC(=O)N1CC(NCC2=CNC3C=CC(C#N)=CC23)C1 (stereo not drawn) |  | 1 | 0.95 |  |  |  |  | 
CNc1ccc(N(Cc2ccsc2)C(=O)Cn2nnc3ccccc32)cc1 |  | 0.99 | 0.77 | 57.1 | 82.6 |  |  | 

SMILES | inhibition ([1]; 50.0 µM) [%] | relative solubility at 20 uM | relative solubility at 100 uM | inhibition ([2]; 20.0 µM) [%] | inhibition ([2]; 50.0 µM) [%] | IC50 [1] [µM] | inhibition ([1]; 20.0 µM) [%] | IC50 [2] [µM]
O=C(Nc1cccnc1)Nc1cc(O)cc(Cl)c1 | 19.4 |  |  | 4.43 | 21.2 |  |  | 
COC(=O)c1c(NCCCc2ccccc2)c2cc(F)ccc2[nH]c1=O |  |  |  | 20.5 | 7.56 | 68.6 |  | 
O=C1CC(Oc2cc(Cl)cc(N(CCC3CCCCC3)C(=O)Nc3cncc4ccccc34)c2)N1 (stereo not drawn) |  |  |  |  |  | 1.58 |  | 0.105
Cc1ccn2c(-c3ccc4[nH]ncc4c3)c(-c3ccc(F)cc3)nc2c1 | 50.8 |  |  | 0.801 | 0.943 |  |  | 
O=C(CCl)N1CCN(Cc2ccsc2)CC1 |  | 1 | 0.99 | 98.8 | 99.4 |  |  | 
Cc1cc(C)nc(NC2CCN(C(=O)CCl)CC2)n1 | 100 |  |  | 46.1 | 81.5 | 19.5 |  | 
Cc1ccc(CN2CCC(CNC(=O)Nc3cn(CC(C)C)c(=O)c4ccccc34)C2)cc1 (stereo not drawn) |  |  |  | -3.01 | 0.927 | 92.3 |  | 
CC(=O)N1CCN(CC(=O)Nc2cncc3ccccc23)CC1 | 42.4 |  |  |  |  | 72.5 |  | 71.7
O=S(=O)(Cc1noc(C2CC2)n1)Nc1cccnc1 | 9.43 |  |  | -2.48 | -1.33 |  |  | 
COc1cccc(CNC(=O)N2CCN(C(=O)N3CCCCC3)CC2)c1 | 0 |  |  | -3.31 | -0.332 |  |  | 
O=C(Cc1cc(Cl)cc(OC2CC(=O)N2)c1)Nc1cncc2ccccc12 (stereo not drawn) |  |  |  |  |  | 0.157 |  | 0.203
CO[C@@H]1C[C@@H](COc2cccnc2)N(c2ncccn2)C1 (stereo in doubt) | 0 |  |  | -6.63 | -1.19 |  |  | 
COC(=O)c1cc(Br)cc2c1NC(=O)C2=O | 61.7 |  |  | -5.73 | -5.38 | 42.3 |  | 
CC(C)c1nc(CN(C)C(=O)N[C@H](C(=O)N[C@@H](Cc2ccccc2)C[C@H](O)[C@H](Cc2ccccc2)NC(=O)OCc2cncs2)C(C)C)cs1 (stereo in doubt) |  |  |  | 2.31 | 6.72 |  | 0 | 
Cc1ncccc1NC(=O)Cc1cccc(Cl)c1 | 0 |  |  | -4.59 | -3.9 |  |  | 
CC(C)C[C@@H]1CN(C(=O)CCl)CCN1Cc1cccc(Cl)c1 (stereo in doubt) | 100 |  |  | 99.2 | 99.5 | 0.515 |  | 
C=CC(=O)N(c1ccc2c(c1)C=CCCC2)C(C(=O)NC(C)(C)C)c1cccnc1 (stereo not drawn) | 0 |  |  | 12.4 | 25.9 |  |  | 
C=CC(=O)N(c1ccc(C(C)OC)cc1)C(C(=O)Nc1cccc(CC)c1)c1cccnc1 (stereo not drawn) |  |  |  | 36.6 | 63.7 |  | 4.44 | 
COc1cccc(C(=O)Nc2n[nH]c(SCc3ccc(Cl)cc3)n2)c1 |  |  |  | 8.77 | 32.5 | 0.2 |  | 
O=C(O)[C@@H](c1ccccc1)N1Cc2ccccc2C1=O (stereo in doubt) |  |  |  | 96.3 | 99.4 | 1.16 |  | 
O=C(Cc1cccc(Cl)c1)Nc1cccnc1 | 52.4 |  |  | 24.1 | 40.9 |  |  | 
O=C(NCc1cccnn1)Nc1cccc(-c2ncc3n2CCCC3)c1 | 0 |  |  | -2.92 | -5.29 |  |  | 
COc1ccc(-c2cc(COc3cc(Cl)cc(CC(=O)Nc4cnccc4C)c3)on2)cc1 | 67.3 |  |  |  |  | 13.8 |  | 71.5
